Experimental data: patent publication US20150005252A1, “COMBINATION THERAPY FOR THE TREATMENT OF CANCER” (TILTAN PHARMA LTD., priority 2012, published 2015)

System: Mouse pancreatic-adenocarcinoma cell-line PANC02
Assay: Orthotopic PANC02 pancreatic tumor model in mice, IP treatment, tumors excised and weighed on Day 18
Type: in vivo
Experimental: Total study duration was 18 days (Treatment period: 14 days, i.e. two weekly treatment schedules). Tumour cells inoculation day was registered as “Day 1”. The compositions were administered IP six days per week starting on Day 4.
Tumor Cells: Mouse pancreatic-adenocarcinoma cell-line PANC02 (a kind gift from Dr A. Marten, University of Heidelberg, Germany).
CB6F1 female mice, 21.1 g average body weight, 10 mice per treatment group.
Five test groups were conducted, each administered with a different treatment composition and schedule as detailed in Tables 1 and 2 below.
Treatment Groups were administered with either vehicle alone (Group 1), a combination of TL-118 and Gemcitabine (Groups 2 and 3), Gemcitabine alone 9 Group 4) and TL-118 alone (Group 5).
• In Groups 2 and 5 the 1st day of TL-118 was Wed. while for Group 3 1st day of TL-118 was Thur. No treatment was given on Sat (see also Table 3 below).
In Group 2 the treatment started with TL-118 and Gemcitabine was administered on the following day while in Group 3 the treatment started with Gemcitabine administration then TL-118 initiation on the following day (see Table 3 below).
The cells were removed from flasks using trypsin. 60 million (60×10^6) cells were counted and re-suspended in 4.5 ml phosphate buffered saline. Before cell spin-down, cells were strained through cell strainer according to the following procedure: • 1. Strainer was placed on 50 ml tube; • 2. Strainer was washed with 5 ml phosphate buffered saline; • 3. Cells detached from flasks in RPMI growth medium were poured over strainer; • 4. Strainer was washed with 5 ml phosphate buffered saline.
Tumor cells (4×10^5 cells, in 30 μl, per animal) are injected into the pancreas using needle 30 G. Tumor cells inoculation to animals was performed under anesthesia (Ketamine 85 mg/kg & Xylasine 5 mg/kg).
Compositions were administered IP using needle 27 G. Compositions were administered daily from Day 4 for duration of […] (see Table I). Body weights measurements (twice weekly) were used for dosing volume calculations from recent measurement. […]

**Q.** With `Nc1ccn([C@@H]2O[C@H](CO)[C@@H](O)C2(F)F)c(=O)n1` [Gemcitabine, 4-amino-1-(2-deoxy-2,2-difluoro-β-D-erythro-pentofuranosyl)pyrimidin-2(1H)-on] as the compound, how does the “representative tumors found at the end of treatment schedule” value (FIGS. 5A-5E, compared with large tumors in vehicle Group 1) read?
**A.** smaller volume tumors

**Q.** What about the “End Result Effect: tumor size relative to vehicle” value (Table 3, end of study, vehicle: very large tumors) of the same compound?
**A.** small tumors relative

**Q.** What about the “percentage of tumor bearing animals” value (end of study (Day 18), CB6F1 female mice, IP, FIG. 1) of the same compound?
**A.** about 80%
